Experiments:
[1] = target: T1, G protein-coupled receptor kinase 6 (Homo sapiens, UniProt P43250); experiment: Inhibition of recombinant full-length human GRK6 using casein as substrate at 1 uM measured after 80 mins in presence of [gamma33P]ATP by radiometric scintillation counting method relative to control
Target sequence in this assay (P43250 whole entry, looked up): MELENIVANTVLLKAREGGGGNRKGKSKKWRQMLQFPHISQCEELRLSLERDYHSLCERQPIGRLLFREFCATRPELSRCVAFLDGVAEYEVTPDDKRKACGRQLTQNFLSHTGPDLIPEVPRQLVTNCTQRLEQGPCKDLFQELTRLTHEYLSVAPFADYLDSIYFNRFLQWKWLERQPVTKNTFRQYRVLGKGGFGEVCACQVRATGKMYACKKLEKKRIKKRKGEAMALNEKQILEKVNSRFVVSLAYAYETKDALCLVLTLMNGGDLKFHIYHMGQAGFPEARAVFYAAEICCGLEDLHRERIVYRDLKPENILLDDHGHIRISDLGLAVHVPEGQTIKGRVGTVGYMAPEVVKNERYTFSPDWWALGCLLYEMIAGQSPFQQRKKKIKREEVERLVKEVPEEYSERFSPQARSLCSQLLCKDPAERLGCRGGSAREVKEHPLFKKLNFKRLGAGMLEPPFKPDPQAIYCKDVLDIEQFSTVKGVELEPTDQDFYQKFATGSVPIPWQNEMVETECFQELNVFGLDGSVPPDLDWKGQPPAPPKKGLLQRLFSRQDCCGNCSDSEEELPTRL

Rhodopsin kinase GRK7 = target: T2, Rhodopsin kinase GRK7 (Homo sapiens, UniProt Q8WTQ7); experiment: Inhibition of recombinant full length human GRK7 using casein as substrate incubated for 40 mins in presence of [gamma-33ATP] by scintillation counting based radiometry assay
T2 sequence (Q8WTQ7 whole entry): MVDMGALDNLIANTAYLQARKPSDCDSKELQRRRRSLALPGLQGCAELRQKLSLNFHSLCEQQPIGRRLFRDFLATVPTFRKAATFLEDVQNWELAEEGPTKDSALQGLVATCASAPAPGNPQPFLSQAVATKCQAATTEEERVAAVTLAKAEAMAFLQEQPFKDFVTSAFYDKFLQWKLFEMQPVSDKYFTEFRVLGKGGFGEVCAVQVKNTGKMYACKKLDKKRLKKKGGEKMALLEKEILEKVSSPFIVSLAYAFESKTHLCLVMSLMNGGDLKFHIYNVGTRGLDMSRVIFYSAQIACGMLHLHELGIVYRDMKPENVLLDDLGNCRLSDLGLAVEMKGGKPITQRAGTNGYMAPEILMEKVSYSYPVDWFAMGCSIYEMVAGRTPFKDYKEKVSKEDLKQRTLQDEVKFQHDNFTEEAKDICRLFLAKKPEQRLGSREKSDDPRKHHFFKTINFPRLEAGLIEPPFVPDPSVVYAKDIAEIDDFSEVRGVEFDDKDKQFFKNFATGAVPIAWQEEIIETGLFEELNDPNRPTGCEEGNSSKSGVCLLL

Aurora kinase A = target: T3, Aurora kinase A (Homo sapiens, UniProt O14965); experiment: Inhibition of recombinant full length human Aurora A using LRRASLG as substrate incubated for 40 mins in presence of [gamma-33ATP] by radiometric scintillation counting method
T3 sequence (O14965 whole entry): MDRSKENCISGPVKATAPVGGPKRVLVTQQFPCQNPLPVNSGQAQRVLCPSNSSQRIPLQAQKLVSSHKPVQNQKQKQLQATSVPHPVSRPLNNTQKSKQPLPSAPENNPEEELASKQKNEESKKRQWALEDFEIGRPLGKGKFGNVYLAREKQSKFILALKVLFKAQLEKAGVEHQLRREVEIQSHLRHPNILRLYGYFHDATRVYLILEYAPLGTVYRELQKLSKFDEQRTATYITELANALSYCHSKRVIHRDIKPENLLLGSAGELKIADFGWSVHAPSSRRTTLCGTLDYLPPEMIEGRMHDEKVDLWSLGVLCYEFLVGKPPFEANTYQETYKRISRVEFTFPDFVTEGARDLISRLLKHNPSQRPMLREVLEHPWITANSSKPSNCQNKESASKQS

[2] = target: Insulin-like growth factor 1 receptor (Homo sapiens, UniProt P08069); experiment: Inhibition of recombinant human IGF-1R (959 to end residues) using KKKSPGEYVNIEF as substrate incubated for 40 mins in presence of [gamma-33ATP] by radiometric scintillation counting method
[3] = target: T1, G protein-coupled receptor kinase 6; experiment: Binding affinity to FLAG-tagged GRK6 in human KMS11 cells incubated for […] by ITDR assay; format: cell-based, KMS-11
Target sequence in this assay (P43250 whole entry): as the sequence (P43250 whole entry, looked up) above

[4] = target: T1, G protein-coupled receptor kinase 6; experiment: Inhibition of human GRK6 using casein as substrate in presence of [gamma33P]ATP by radiometric hotspot kinase assay
Target sequence in this assay (P43250 whole entry): as the sequence (P43250 whole entry, looked up) above

[5] = target: T4, G protein-coupled receptor kinase 3 (Homo sapiens, UniProt P35626); experiment: Inhibition of human GRK3 using casein as substrate in presence of [gamma33P]ATP by radiometric hotspot kinase assay
T4 sequence (P35626 whole entry): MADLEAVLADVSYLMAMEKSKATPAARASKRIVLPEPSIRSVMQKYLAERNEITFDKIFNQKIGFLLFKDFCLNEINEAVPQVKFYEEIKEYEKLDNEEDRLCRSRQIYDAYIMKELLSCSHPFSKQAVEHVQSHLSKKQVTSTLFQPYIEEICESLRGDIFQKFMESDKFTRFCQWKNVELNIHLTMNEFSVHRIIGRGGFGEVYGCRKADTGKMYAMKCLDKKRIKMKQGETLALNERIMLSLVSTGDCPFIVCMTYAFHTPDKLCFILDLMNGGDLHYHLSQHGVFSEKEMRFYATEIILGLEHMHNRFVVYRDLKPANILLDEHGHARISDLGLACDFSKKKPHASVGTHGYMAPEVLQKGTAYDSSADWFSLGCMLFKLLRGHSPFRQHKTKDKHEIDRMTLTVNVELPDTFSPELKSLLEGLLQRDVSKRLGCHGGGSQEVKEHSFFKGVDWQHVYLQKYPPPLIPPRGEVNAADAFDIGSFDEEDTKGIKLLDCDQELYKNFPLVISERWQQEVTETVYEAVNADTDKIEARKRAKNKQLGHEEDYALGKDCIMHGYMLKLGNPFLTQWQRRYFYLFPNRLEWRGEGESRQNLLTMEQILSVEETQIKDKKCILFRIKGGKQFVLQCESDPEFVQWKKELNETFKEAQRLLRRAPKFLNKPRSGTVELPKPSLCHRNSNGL

[6] = target: G protein-coupled receptor kinase 4 (Homo sapiens, UniProt P32298); experiment: Inhibition of human GRK4 using casein as substrate in presence of [gamma33P]ATP by radiometric hotspot kinase assay
[7] = target: T5, Beta-adrenergic receptor kinase 1 (Homo sapiens, UniProt P25098); experiment: Inhibition of human GRK2 using casein as substrate in presence of [gamma33P]ATP by radiometric hotspot kinase assay
T5 sequence (P25098 whole entry): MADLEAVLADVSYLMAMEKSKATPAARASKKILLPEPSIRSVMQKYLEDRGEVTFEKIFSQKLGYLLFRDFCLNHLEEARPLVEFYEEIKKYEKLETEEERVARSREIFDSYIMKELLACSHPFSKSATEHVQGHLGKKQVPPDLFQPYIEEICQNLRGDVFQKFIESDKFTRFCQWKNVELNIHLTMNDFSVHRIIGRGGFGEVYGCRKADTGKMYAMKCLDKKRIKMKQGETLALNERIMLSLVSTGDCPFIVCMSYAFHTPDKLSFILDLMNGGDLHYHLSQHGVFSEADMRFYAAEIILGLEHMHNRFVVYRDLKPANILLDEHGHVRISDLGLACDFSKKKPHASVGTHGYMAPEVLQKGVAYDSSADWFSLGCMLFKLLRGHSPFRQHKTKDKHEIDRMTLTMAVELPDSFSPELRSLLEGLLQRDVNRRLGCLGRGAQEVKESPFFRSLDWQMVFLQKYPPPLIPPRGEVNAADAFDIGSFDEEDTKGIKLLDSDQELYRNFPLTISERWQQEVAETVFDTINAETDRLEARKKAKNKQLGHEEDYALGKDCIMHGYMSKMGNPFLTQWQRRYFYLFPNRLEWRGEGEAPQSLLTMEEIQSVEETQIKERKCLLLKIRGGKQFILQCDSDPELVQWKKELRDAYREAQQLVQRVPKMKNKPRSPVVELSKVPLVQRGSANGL

Rhodopsin kinase GRK1 = target: T6, Rhodopsin kinase GRK1 (Homo sapiens, UniProt Q15835); experiment: Inhibition of human GRK1 using casein as substrate in presence of [gamma33P]ATP by radiometric hotspot kinase assay
T6 sequence (Q15835 whole entry): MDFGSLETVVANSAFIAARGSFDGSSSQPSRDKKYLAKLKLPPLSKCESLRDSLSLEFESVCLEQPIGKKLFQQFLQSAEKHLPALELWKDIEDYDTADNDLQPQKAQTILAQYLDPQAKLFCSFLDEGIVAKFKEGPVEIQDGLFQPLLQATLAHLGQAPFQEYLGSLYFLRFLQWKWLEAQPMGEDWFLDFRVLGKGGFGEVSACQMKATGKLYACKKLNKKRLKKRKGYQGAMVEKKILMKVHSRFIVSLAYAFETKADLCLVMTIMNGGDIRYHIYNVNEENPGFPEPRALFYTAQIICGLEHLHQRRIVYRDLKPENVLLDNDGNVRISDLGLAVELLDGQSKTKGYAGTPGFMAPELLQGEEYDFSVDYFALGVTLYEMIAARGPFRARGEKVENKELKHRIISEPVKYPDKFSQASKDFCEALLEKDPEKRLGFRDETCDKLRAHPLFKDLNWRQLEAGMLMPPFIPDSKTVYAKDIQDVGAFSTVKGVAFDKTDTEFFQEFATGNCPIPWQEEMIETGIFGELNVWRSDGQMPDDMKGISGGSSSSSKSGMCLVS

[8] = target: T1, G protein-coupled receptor kinase 6; experiment: Inhibition of recombinant full-length human GRK6 using casein as substrate measured after 80 mins in presence of [gamma33P]ATP by radiometric scintillation counting method
Target sequence in this assay (P43250 whole entry): as the sequence (P43250 whole entry, looked up) above

Chain of G protein-coupled receptor kinase 4 (P32298 whole entry): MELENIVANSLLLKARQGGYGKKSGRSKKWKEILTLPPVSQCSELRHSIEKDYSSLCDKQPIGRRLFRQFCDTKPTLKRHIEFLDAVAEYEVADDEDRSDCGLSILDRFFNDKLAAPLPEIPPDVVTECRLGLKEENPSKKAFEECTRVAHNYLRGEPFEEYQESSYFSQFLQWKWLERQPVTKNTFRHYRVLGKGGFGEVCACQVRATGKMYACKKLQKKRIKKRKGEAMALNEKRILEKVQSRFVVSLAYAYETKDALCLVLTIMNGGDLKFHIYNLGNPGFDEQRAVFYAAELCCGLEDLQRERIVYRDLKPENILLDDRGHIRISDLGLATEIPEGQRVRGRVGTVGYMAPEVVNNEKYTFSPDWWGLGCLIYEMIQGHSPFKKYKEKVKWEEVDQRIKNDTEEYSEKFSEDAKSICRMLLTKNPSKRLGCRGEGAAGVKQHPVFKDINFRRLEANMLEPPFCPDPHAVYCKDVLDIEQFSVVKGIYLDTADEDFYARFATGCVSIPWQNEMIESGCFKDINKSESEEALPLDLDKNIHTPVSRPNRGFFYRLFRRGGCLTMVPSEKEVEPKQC
Chain of Insulin-like growth factor 1 receptor (P08069 31-736 limits assumed): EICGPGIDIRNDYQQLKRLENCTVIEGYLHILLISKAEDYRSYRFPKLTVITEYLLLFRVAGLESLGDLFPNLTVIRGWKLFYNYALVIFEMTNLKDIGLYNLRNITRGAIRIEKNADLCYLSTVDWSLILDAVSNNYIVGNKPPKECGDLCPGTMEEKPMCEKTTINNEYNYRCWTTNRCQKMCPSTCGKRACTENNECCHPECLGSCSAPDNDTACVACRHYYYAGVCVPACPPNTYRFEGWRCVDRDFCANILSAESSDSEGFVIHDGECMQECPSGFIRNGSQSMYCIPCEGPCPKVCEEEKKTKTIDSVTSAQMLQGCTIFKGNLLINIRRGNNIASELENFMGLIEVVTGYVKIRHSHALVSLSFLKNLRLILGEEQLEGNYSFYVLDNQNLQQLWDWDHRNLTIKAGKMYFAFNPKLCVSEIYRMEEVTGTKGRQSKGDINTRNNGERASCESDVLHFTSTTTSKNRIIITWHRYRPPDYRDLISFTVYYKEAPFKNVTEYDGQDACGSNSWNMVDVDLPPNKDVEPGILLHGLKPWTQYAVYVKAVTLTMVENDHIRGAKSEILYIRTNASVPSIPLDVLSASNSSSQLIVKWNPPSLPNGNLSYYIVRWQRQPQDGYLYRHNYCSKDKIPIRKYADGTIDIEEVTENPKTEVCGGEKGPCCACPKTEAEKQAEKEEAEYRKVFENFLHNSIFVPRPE
Chain of Insulin-like growth factor 1 receptor (P08069 741-1367 limits assumed): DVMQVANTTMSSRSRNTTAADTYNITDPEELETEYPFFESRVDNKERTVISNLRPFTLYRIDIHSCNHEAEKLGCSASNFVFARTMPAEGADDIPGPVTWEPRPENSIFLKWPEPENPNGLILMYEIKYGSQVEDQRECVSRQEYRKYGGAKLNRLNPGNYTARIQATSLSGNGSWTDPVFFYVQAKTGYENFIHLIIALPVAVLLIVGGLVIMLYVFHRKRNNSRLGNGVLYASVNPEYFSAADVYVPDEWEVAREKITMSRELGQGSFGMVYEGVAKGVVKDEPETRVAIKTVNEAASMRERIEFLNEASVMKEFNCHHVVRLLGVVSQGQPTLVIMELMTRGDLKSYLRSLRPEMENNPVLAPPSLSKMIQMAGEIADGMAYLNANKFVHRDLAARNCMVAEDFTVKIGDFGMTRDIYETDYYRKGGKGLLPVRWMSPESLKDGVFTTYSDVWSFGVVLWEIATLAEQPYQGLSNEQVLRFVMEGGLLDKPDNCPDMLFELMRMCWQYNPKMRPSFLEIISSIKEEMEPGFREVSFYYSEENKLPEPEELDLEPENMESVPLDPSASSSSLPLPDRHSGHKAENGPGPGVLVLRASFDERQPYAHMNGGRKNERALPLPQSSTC

inhibition [1]	IC50 (Rhodopsin kinase GRK7)	IC50 (Aurora kinase A)	IC50 [2]	IC50 [3]	IC50 [4]	IC50 [5]	IC50 [6]	IC50 [7]	IC50 (Rhodopsin kinase GRK1)	IC50 [8]	Structure (SMILES)
79%	–	–	–	–	–	–	–	–	–	–	Cc1cc(Nc2nc(N[C@@H](C)c3ccc(F)cc3)c(C#N)cc2F)n[nH]1
–	36 nM	4600 nM	> 10000 nM	10000 nM	33 nM	> 10000 nM	190 nM	> 10000 nM	450 nM	18 nM	CCc1cc(Nc2nc(NCc3ccc(F)cn3)nc3cccc(OC)c23)n[nH]1
95%	–	–	–	–	–	–	–	–	–	–	N#CCc1ccc(Nc2nc(Nc3cc(C4CCC4)[nH]n3)c3ccccc3n2)cc1
–	15 nM	860 nM	–	2000 nM	18 nM	> 10000 nM	97 nM	> 10000 nM	190 nM	7.2 nM	CCc1cc(Nc2nc(N[C@@H](C)c3ccc(F)cn3)nc3cccc(OC)c23)n[nH]1
